Results taken from US8063012B2, “Neuroprotective peptide inhibitors of AP-1 signaling and uses therefor” (Phylogica Limited, priority 2006, dated 2011).
“Also recorded” adds a separate entry of the source. Non-standard residues stand in square brackets, D forms with d. Residues, ends and D or L forms follow the SMILES beside them. No end group written: not given here.

Tests used:
[1] = tested on: primary cortical neuronal cultures; experiment: Glutamate excitotoxicity in primary cortical neuronal cultures, neuronal viability by MTS assay; format: cell-based, rat; settings: for neuroprotection compared with JNKI-1D-TAT: 1 μM concentration
Procedure: Neurons were resuspended in Neurobasal (NB; Invitrogen) containing 2% B27 supplement (B27; Invitrogen). Before seeding, culture vessels comprising either a 96-well plastic plate or 24-well plastic plate with 13 mm glass coverslips (ProSciTech, Australia), were coated with poly-D-lysine (50 μg/mL; 70-150K; Sigma) and incubated overnight at room temperature. […] Neurons were plated to obtain approximately 10,000 viable neurons for each well of a 96-well plate, or 200,000 viable neurons per well of a 24-well plate, on day in vitro (DIV) […]. […] On DIV 4, one third of the culture medium was removed and replaced with fresh NB/2% B27 containing the mitotic inhibitor, cytosine arabinofuranoside (Sigma) at 1 μM concentration. On DIV 8, one half of the culture medium was replaced with NB/2% B27.
(§1) To induce glutamate excitotoxicity in the cortical neuronal cultures (96-well plate format), 50 μl of conditioned media containing 200 μM glutamate was added to culture wells containing 50 μl conditioned media (100 μM final glutamate concentration). Cultures were incubated at 37° C. in a CO2 incubator for 5 minutes, after which time the media was replaced with 100 μl of 50% NB/2% N2 and 50% balance salt solution (NB/N2:BSS).
Untreated and glutamate-treated control samples received media additions with and without glutamate respectively.
(§2) Eighteen hours after glutamate exposure, neuronal cultures were examined by light microscopy for qualitative assessment of neuronal damage. Neuronal viability was quantitatively measured by 3-(4,5,dimethyliazol-2-yl)-5-(3-carboxymethoxy-phenyl)-2-(4-sulfophenyl)-2H-tetrazolium salt (MTS) assay (Promega, Australia). The MTS assay measures the mitochondrial conversion of the tetrazolium salt to a water-soluble brown formazan salt, which is detected spectrophotometrically at 495 nm. MTS absorbance data was converted to reflect proportional cell viability relative to both the untreated and glutamate treated controls. […] All assays were performed with quadruplicate sister neuronal cultures repeated a minimum of four times independently.

[2] = tested on: primary cortical neuronal cultures; experiment: Light microscopy assessment of neuronal damage after glutamate exposure; format: cell-based, rat; settings: for neuronal morphology (cellular rounding, survival) after glutamate exposure: light microscopy, one hour to 18 hours post glutamate exposure; for neurons that appeared intact and viable: Sprague-Dawley, rat, 18 hours
Procedure: Cortical neuronal cultures were established as described by Meloni et al., Neuroscience 108, 17-26, 2001. Briefly, cortical tissue from E18-E19 Sprague-Dawley rats was dissociated in Dulbelcco's Modified Eagle Medium (DMEM; Invitrogen, Australia) supplemented with 1.3 mM L-cysteine, 0.9 mM NaHCO3, 10 units/ml papain (Sigma, USA) and 50 units/ml DNase (Sigma) and washed in cold DMEM/10% (v/v) horse serum. Neurons were resuspended in Neurobasal (NB; Invitrogen) containing 2% B27 supplement (B27; Invitrogen). Before seeding, culture vessels comprising either a 96-well plastic plate or 24-well plastic plate with 13 mm glass coverslips (ProSciTech, Australia), were coated with poly-D-lysine (50 μg/mL; 70-150K; Sigma) and incubated overnight at room temperature. The poly-D-lysine was removed and replaced with NB (containing 2% B27; 4% fetal bovine serum; 1% horse serum; 62.5 μM glutamate; 25 μM 2-mercaptoethanol; and 30 μg/mL streptomycin and 30 μg/mL penicillin). Neurons were plated to obtain approximately 10,000 viable neurons for each well of a 96-well plate, or 200,000 viable neurons per well of a 24-well plate, on day in vitro (DIV) […]. Neuronal cultures were maintained in a CO2 incubator (5% CO2, 95% air balance, 98% humidity) at 37° C. On DIV 4, one third of the culture medium was removed and replaced with fresh NB/2% B27 containing the mitotic inhibitor, cytosine arabinofuranoside (Sigma) at 1 μM concentration. On DIV 8, one half of the culture medium was replaced with NB/2% B27. Cultures were used on DIV 11 or 12, and consisted of >95% neurons.
as §1, §2

[3] = 1 μM extracellular concentration
[4] = Sprague-Dawley, rat, 18 h, 5 μM
[5] = 2 μM extracellular concentration
[6] = 5 μM extracellular peptide, 100 μM glutamate 5 min, MTS 18 h, no insult = 100%

| Molecule | neuroprotection compared with JNKI-1D-TAT [1] | neuroprotection following glutamate excitotoxicity [1, 3] | neuronal viability following glutamate excitotoxicity [1, 4] [%] | neuronal morphology (cellular rounding, survival) after glutamate exposure [2] | neuroprotection following glutamate excitotoxicity [1, 5] | neurons that appeared intact and viable [2] | also measured |
| --- | --- | --- | --- | --- | --- | --- | --- |
| CC[C@@H](C)[C@@H](NC(=O)[C@H](N)Cc1ccc(O)cc1)C(=O)N[C@H](Cc1ccc(O)cc1)C(=O)N1CCC[C@@H]1C(=O)N[C@H](Cc1ccc(O)cc1)C(=O)N[C@H](C)C(=O)N[C@H](Cc1ccc(O)cc1)C(=O)N[C@H](CO)C(=O)N[C@H](CCC(N)=O)C(=O)N[C@H](CC(N)=O)C(=O)N[C@@H](C(=O)N[C@H](CC(C)C)C(=O)NCC(=O)N[C@H](CCCNC(=N)N)C(=O)N[C@H](CCCNC(=N)N)C(=O)N[C@H](CCCNC(=N)N)C(=O)N[C@H](CCC(N)=O)C(=O)N[C@H](CCCNC(=N)N)C(=O)N[C@H](CCCNC(=N)N)C(=O)N[C@H](CCCCN)C(=O)N[C@H](CCCCN)C(=O)N[C@H](CCCNC(=N)N)C(=O)NCC(=O)O)[C@H](C)CC [PYC19D-TAT] | greater neuroprotection than JNKI-1D-TAT | significant neuroprotection | 68 |  |  |  | neuroprotection of D-isoform compared with L-isoform ([1]; concentrations higher than 1 μM): clearly provides enhanced neuroprotection |
| GRKKRRQRRRGLINQSYAYPYIY [PYC19L-TAT] |  | neuroprotective trend; also recorded: significant neuroprotection |  | did not begin to round and survived glutamate excitotoxicity | neuroprotective trend |  | neuronal viability following glutamate excitotoxicity [1, 6]: 32% |
| CC[C@@H](C)[C@@H](NC(=O)[C@@H](CC(N)=O)NC(=O)[C@@H](CCC(N)=O)NC(=O)[C@@H](CCC(=O)O)NC(=O)[C@@H](Cc1c[nH]cn1)NC(=O)[C@@H](Cc1c[nH]cn1)NC(=O)[C@@H](CCCNC(=N)N)NC(=O)[C@@H](CC(C)C)NC(=O)[C@@H](CC(C)C)NC(=O)[C@H]1CCCN1C(=O)[C@H](N)CC(C)C)C(=O)N[C@H](CO)C(=O)N[C@@H](C(=O)NCC(=O)N[C@H](CCCNC(=N)N)C(=O)N[C@H](CCCNC(=N)N)C(=O)N[C@H](CCCNC(=N)N)C(=O)N[C@H](CCC(N)=O)C(=O)N[C@H](CCCNC(=N)N)C(=O)N[C@H](CCCNC(=N)N)C(=O)N[C@H](CCCCN)C(=O)N[C@H](CCCCN)C(=O)N[C@H](CCCNC(=N)N)C(=O)NCC(=O)O)C(C)C [PYC41D-TAT] |  |  | 40 |  | initial significant neuroprotection |  |  |
| GRKKRRQRRRGGLQGRRRQGYQSIKP [PYC36L-TAT] | greater neuroprotection than JNKI-1D-TAT | significant level of neuroprotection |  | did not begin to round and survived glutamate excitotoxicity |  |  | neuronal viability following glutamate excitotoxicity ([1]; 1 μM extracellular peptide, MTS 18 h): 30%; neuronal viability following glutamate excitotoxicity [1, 6]: 64% |
| CC[C@@H](C)[C@@H](NC(=O)[C@@H](CCC(=O)O)NC(=O)[C@@H](CO)NC(=O)[C@@H](CO)NC(=O)[C@@H](CO)NC(=O)[C@@H](CCCCN)NC(=O)[C@@H](CCCNC(=N)N)NC(=O)[C@@H](CCC(=O)O)NC(=O)[C@H](N)CCCNC(=N)N)C(=O)NCC(=O)NCC(=O)N[C@H](CO)C(=O)N[C@H](CCCNC(=N)N)C(=O)N[C@@H](C(=O)N[C@H](CO)C(=O)N[C@H](CCC(N)=O)C(=O)N[C@H](Cc1ccc(O)cc1)C(=O)N[C@H](C)C(=O)NCC(=O)O)[C@H](C)CC [PYC35D, Arg Glu Arg Lys Ser Ser Ser Glu Ile Gly Gly Ser Arg Ile Ser Gln Tyr Ala Gly] (H-[dR][dE][dR][dK][dS][dS][dS][dE][dI]GG[dS][dR][dI][dS][dQ][dY][dA]G-OH; N-terminus and C-terminus assumed) |  |  |  | displayed cellular rounding |  | 2-5% |  |
| CC[C@@H](C)[C@@H](NC(=O)CNC(=O)CNC(=O)[C@@H](CCCNC(=N)N)NC(=O)[C@@H](CCCNC(=N)N)NC(=O)[C@H](N)CCCCN)C(=O)N[C@H](CC(C)C)C(=O)N[C@H](CCCNC(=N)N)C(=O)N[C@H](Cc1ccc(O)cc1)C(=O)NCC(=O)N[C@H](CCC(N)=O)C(=O)N1CCC[C@@H]1C(=O)N[C@H](CCC(N)=O)C(=O)N[C@H](CO)C(=O)N[C@H](CCC(N)=O)C(=O)NCC(=O)N[C@H](CCCNC(=N)N)C(=O)N[C@H](CCCNC(=N)N)C(=O)N[C@H](CCCNC(=N)N)C(=O)N[C@H](CCC(N)=O)C(=O)N[C@H](CCCNC(=N)N)C(=O)N[C@H](CCCNC(=N)N)C(=O)N[C@H](CCCCN)C(=O)N[C@H](CCCCN)C(=O)N[C@H](CCCNC(=N)N)C(=O)NCC(=O)O [PYC36D Scram-TAT, reference compound] (H-[dK][dR][dR]GG[dI][dL][dR][dY]G[dQ][dP][dQ][dS][dQ]G[dR][dR][dR][dQ][dR][dR][dK][dK][dR]G-OH; N-terminus and C-terminus assumed) |  |  |  | displayed cellular rounding |  | 2-5% | neuroprotection in the glutamate model ([1]; 5 μM extracellular peptide): failed to provide neuroprotection; neuroprotection in the glutamate model ([1]; 5 μM extracellular peptide, listed as PYC36L Scram-TAT): reduced neuroprotection |
| CC(C)C[C@@H](NC(=O)[C@H]1CCCN1C(=O)[C@@H](C)NC(=O)[C@@H](Cc1c[nH]cn1)NC(=O)[C@H](N)CCCNC(=N)N)C(=O)N[C@H](C)C(=O)N[C@H](CCCNC(=N)N)C(=O)NCC(=O)N[C@H](CO)C(=O)N[C@H](Cc1c[nH]c2ccccc12)C(=O)N[C@H](CCCNC(=N)N)C(=O)NCC(=O)N[C@H](CCC(N)=O)C(=O)N1CCC[C@@H]1C(=O)N[C@H](CCC(N)=O)C(=O)N[C@H](CCC(N)=O)C(=O)NCC(=O)N1CCC[C@@H]1C(=O)N[C@H](CCC(N)=O)C(=O)N[C@H](CCCNC(=N)N)C(=O)N[C@H](CCCNC(=N)N)C(=O)NCC(=O)N[C@H](CCC(N)=O)C(=O)N[C@H](CC(C)C)C(=O)NCC(=O)NCC(=O)N[C@H](CCCNC(=N)N)C(=O)N[C@H](CCCNC(=N)N)C(=O)N[C@H](CCCNC(=N)N)C(=O)N[C@H](CCC(N)=O)C(=O)N[C@H](CCCNC(=N)N)C(=O)N[C@H](CCCNC(=N)N)C(=O)N[C@H](CCCCN)C(=O)N[C@H](CCCCN)C(=O)N[C@H](CCCNC(=N)N)C(=O)NCC(=O)O [PYC38/39D-TAT] (H-[dR][dH][dA][dP][dL][dA][dR]G[dS][dW][dR]G[dQ][dP][dQ][dQ]G[dP][dQ][dR][dR]G[dQ][dL]GG[dR][dR][dR][dQ][dR][dR][dK][dK][dR]G-OH; N-terminus and C-terminus assumed) | greater neuroprotection than JNKI-1D-TAT |  | 83 |  | initial significant neuroprotection |  |  |
| CC[C@@H](C)[C@@H](NC(=O)[C@@H](CCCCN)NC(=O)[C@H]1CCCN1)C(=O)N[C@H](CO)C(=O)N[C@H](CCC(N)=O)C(=O)N[C@H](Cc1ccc(O)cc1)C(=O)NCC(=O)N[C@H](CCC(N)=O)C(=O)N[C@H](CCCNC(=N)N)C(=O)N[C@H](CCCNC(=N)N)C(=O)N[C@H](CCCNC(=N)N)C(=O)NCC(=O)N[C@H](CCC(N)=O)C(=O)N[C@H](CC(C)C)C(=O)NCC(=O)O [PYC36D, Pro Lys Ile Ser Gln Tyr Gly Gln Arg Arg Arg Gly Gln Leu Gly] (H-[dP][dK][dI][dS][dQ][dY]G[dQ][dR][dR][dR]G[dQ][dL]G-OH; N-terminus and C-terminus assumed) |  |  |  | displayed cellular rounding |  | 2-5% |  |
